Details: in water

C=CCC
Details	solubility (mole fraction)
293.15 K	9.53e-05
295.15 K	8.78e-05
298.15 K	7.97e-05
300.15 K	7.44e-05
303.15 K	6.77e-05
305.15 K	6.42e-05
308.15 K	5.96e-05
310.15 K	5.56e-05
313.15 K	5.24e-05
315.15 K	4.9e-05
318.15 K	4.63e-05
320.15 K	4.42e-05
323.15 K	4.12e-05

— BigSolDB 2.1
